Measurements: US12692259B2, “Morpholine-containing and piperazine-containing CXCR4 modulators and uses related thereto” (Emory University, priority 2021, dated 2026)

What was measured:
CXCR4 [1] = target: T1, CXCR4 (Homo sapiens, UniProt P61073); assay: cAMP assay in CXCR4-CHO-Glo cells (GloSensor, forskolin + SDF-1α); assay type: cell-based; set-up: expressed in transfected cells
Excerpt: Materials, reagents, and instrument—Advanced DMEM (Gibco), trypsin EDTA (0.05%, phenol red), L-glutamine, HBSS buffer with and without Ca^2+/Mg^2+ (Gibco), antibiotic-antimycotic (Gibco), hygromycin B, and geneticin selective antibiotic (G418 sulfate) were purchased from Invitrogen. Forskolin (Tocris), SDF-1α (R&D Systems), HEPES (Sigma Aldrich), FBS (Atlanta Biologicals), D-luciferin (Gold Biotechnology), sterile 60 mm tissue culture dishes, and 96-well sterile tissue culture plates were purchased from Corning.
The assay targeted CXCR4 expressed in CHO-gloSensor cells. It monitored GPCR activation based on forskolin-stimulated cAMP production in cells. The assay used a genetically encoded biosensor with its cAMP binding domain fused to luciferase. Binding of cAMP to the cAMP binding domain changed the conformation of the biosensor, leading to the activation of luciferase. The intensity of the luciferase signal (light output) resulted from the oxidation of D-luciferin to oxyluciferin is proportional to the amount of cAMP produced in the cells.
The assay was performed in triplicate using live cells in 96-well tissue culture plates. Cells were pre-incubated in the dark at room temperature for one hour in the presence of D-luciferin. Bioluminescence was quantified before and after the agonist/antagonist addition. Stock solution of forskolin and SDF-1a, was prepared in Locke-Luc buffer. Stock solutions of the test compounds were prepared in DMSO (10 mM); they were diluted by Locke's buffer for use in the assay.
CHO-Glo cells, a cell line stably expressing the GloSensor cAMP biosensor (Promega), were transfected with cDNA encoding human CXCR4 in Pires-AcGFP1 (Clontech) and a stable cell line was isolated (CXCR4-CHO-Glo cells). The CXCR4-CHO-Glo cells were grown to confluency on 60 mm tissue culture dishes. After trypsinization, the cells were plated on 96-well plates and incubated overnight. The next day, culture media in each well was aspirated and replaced with 100 μL Locke's buffer containing 4 mM D-luciferin, followed by incubation in the dark for one hour. Before the addition of agonist/antagonist, each plate was read five times at 2 min intervals to obtain basal bioluminescence values from each well. The average of these five pre-readings was used to normalize each well's response to account for differences in GloSensor expression and cell density. After five pre-readings, cAMP formation was initiated with the addition of 50 μL solution of test compound (TC) in Locke Luc buffer containing forskoline and SDF-1α. […] Luminescence was measured immediately after the addition of the antagonist solution. The measurements were taken every two minutes for 30 minutes in kinetics mode after antagonist addition. IC50 values were calculated from the 4-parameter logistic equation using Prism GraphPad.

PAMPA assay = assay type: in vitro ADME; details: pH 7.4
Procedure: PAMPA assay was performed by BioAssay Systems Services or Bristol Myers Squibb. The method used by BioAssay Systems Services is described below.
Stock solutions in DMSO for all compounds (10 mM) were thawed. The assay was performed in duplicate by following the PAMPA-096 procedure for sample plating. 4% Lecithin in dodecane solution was prepared by resuspending the dried lecithin with 750 μL dodecane. PBS pH 7.4 was used as the diluent. Two sets of plates and equilibrium solutions were incubated for 4 hours at room temperature. Acceptor and equilibrium solutions were analyzed in a UV plate. OD280 nm was used for High Permeability Control (chloramphenicol). OD270 nm was used for Medium Permeability Control (diclofenac) and Low Permeability Control (theophylline). OD254 nm was used for the test compounds.
Data analysis was performed by using the peak absorbance for each respective test compound and Permeability Control to determine the Permeability Rate (Pe) via the following equation: […]
where ODA is the absorbance of Acceptor Solution, ODE is the absorbance of the Equilibrium Standard, and C is determined by the equation below: […]
where Donor Volume (VD) is 0.2 cm^3, Acceptor Volume (VA) is 0.3 cm^3, and Membrane Area (Area) is 0.24 cm^2.

CXCR4 [2] = target: T1, CXCR4; assay: Calcium flux assay (antagonist mode, SDF-1α challenge); assay type: cell-based; set-up: Eurofins or Bristol Myers Squibb (contract assay); details: read-out: CXCR4 Ca^+2 Flux IC50
Procedure: Calcium flux assay was performed by Eurofins or Bristol Myers Squibb. The method used by Eurofins is described below.
Compound plate preparation: Vehicle controls and positive controls were prepared to ensure all assays were properly controlled. All wells were prepared using the Eurofins Discovery Services GPCRProfiler® Assay Buffer. The GPCRProfiler® Assay Buffer was a modified Hanks Balanced Salt Solution (HBSS) where HBSS was supplemented to contain 20 mM HEPES and 2.5 mM Probenecid at pH 7.4.
Agonist assay (first addition): Compound(s) supplied were plated in duplicate for each concentration assayed. During the agonist assay, the concentration(s) reflects accommodation for the dilution of compound during the antagonist assay. Please see below for further details. […] The reference agonist for each GPCR was included at Emax (the concentration where the reference agonist elicited a maximal response). The agonist assay was conducted on a FLIPR^TETRA instrument where the test compound(s), vehicle controls, and reference agonist were added to the assay plate after a fluorescence/luminescence baseline was established. The agonist assay was a total of 180 seconds and was used to assess each compound's ability to activate each GPCR assayed. Upon completion of the three minute agonist assay, the assay plate was incubated at 25° C. for a further two minutes. After the incubation period the antagonist assay was initiated.
The antagonist assay was conducted using the same assay plate that was used for the agonist assay. The antagonist assay was conducted on a FLIPR^TETRA instrument where vehicle controls and challenge concentration of reference agonist were added to appropriate wells. The antagonist assay was a total of 180 seconds and was used to assess each compound's ability to inhibit each GPCR assayed.
Data Processing—All plates were subjected to appropriate baseline corrections. Once baseline corrections were processed, maximum fluorescence/luminescence values were exported, and data manipulated to calculate percentage activation and percentage inhibition. […] Data manipulation calculation is as followed: ((Max RLU)−(Baseline Avg.))/((Positive Avg.)−(Baseline Avg.)).

T1 sequence (P61073 whole entry): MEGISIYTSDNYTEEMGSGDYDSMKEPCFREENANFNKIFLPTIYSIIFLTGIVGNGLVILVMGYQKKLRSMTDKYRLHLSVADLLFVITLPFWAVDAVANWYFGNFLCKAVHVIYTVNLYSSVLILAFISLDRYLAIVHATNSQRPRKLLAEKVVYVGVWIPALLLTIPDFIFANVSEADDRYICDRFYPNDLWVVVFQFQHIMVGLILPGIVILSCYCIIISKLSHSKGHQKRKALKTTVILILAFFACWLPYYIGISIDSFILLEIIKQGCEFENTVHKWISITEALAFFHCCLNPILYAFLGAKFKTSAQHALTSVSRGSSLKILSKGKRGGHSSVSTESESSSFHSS

SMILES	IC50 (CXCR4 [1])	Papp at 4 h (PAMPA assay)	IC50 (CXCR4 [2])
CN1CCN(c2cccc3c2C[C@H](CN(C)[C@H]2CCCc4cccnc42)NC3)CC1=O [EMU-255, 1-methyl-4-((R)-3-((methyl((S)-5,6,7,8-tetrahydroquinolin-8-yl)amino)methyl)-1,2,3,4-tetrahydroisoquinolin-5-yl)piperazin-2-one]	69.3 nM	13.6 ×10⁻⁶ cm/s	224 nM
CCOC(=O)N1CCN(c2cccc3c2C[C@H](CN(C)[C@H]2CCCc4cccnc42)NC3)CC1 [EMU-261, ethyl 4-((R)-3-((methyl((S)-5,6,7,8-tetrahydroquinolin-8-yl)amino)methyl)-1,2,3,4-tetrahydroisoquinolin-5-yl)piperazine-1-carboxylate]	3.7 nM	14.6 ×10⁻⁶ cm/s	990 nM
CN1CCN(c2cccc3c2C[C@@H](CN(C)[C@H]2CCCc4cccnc42)NC3)C(=O)C1 [EMU-251, 4-methyl-1-((S)-3-((methyl((S)-5,6,7,8-tetrahydroquinolin-8-yl)amino)methyl)-1,2,3,4-tetrahydroisoquinolin-5-yl)piperazin-2-one]	244 nM	14.6 ×10⁻⁶ cm/s	205 nM
CN(C[C@H]1Cc2c(cccc2N2CCNC(=O)C2)CN1)[C@H]1CCCc2cccnc21 [EMU-254, 4-((R)-3-((methyl((S)-5,6,7,8-tetrahydroquinolin-8-yl)amino)methyl)-1,2,3,4-tetrahydroisoquinolin-5-yl)piperazin-2-one]	31.6 nM	11.8 ×10⁻⁶ cm/s	52 nM

The next lines start with the values.

IC50 (CXCR4 [1])	Papp at 4 h (PAMPA assay)	IC50 (CXCR4 [2])	SMILES
14.6 nM	14.6 ×10⁻⁶ cm/s	56 nM	CC(=O)N1CCN(c2cccc3c2C[C@H](CN(C)[C@H]2CCCc4cccnc42)NC3)CC1 [EMU-262, 1-(4-((R)-3-((methyl((S)-5,6,7,8-tetrahydroquinolin-8-yl)amino)methyl)-1,2,3,4-tetrahydroisoquinolin-5-yl)piperazin-1-yl)ethan-1-one]
48.3 nM	13.4 ×10⁻⁶ cm/s	312 nM	CN(C[C@H]1Cc2c(cccc2N2CCN(S(C)(=O)=O)CC2)CN1)[C@H]1CCCc2cccnc21 [EMU-263, (S)—N-methyl-N—(((R)-5-(4-(methylsulfonyl)piperazin-1-yl)-1,2,3,4-tetrahydroisoquinolin-3-yl)methyl)-5,6,7,8-tetrahydroquinolin-8-amine]
28.9 nM	16.7 ×10⁻⁶ cm/s	13 nM	CN1CCN(c2cccc3c2CC(CN(C)[C@H]2CCOc4cccnc42)NC3)CC1 (stereo partly drawn) [EMU-320, (4S)—N-methyl-N-((5-(4-methylpiperazin-1-yl)-1,2,3,4-tetrahydroisoquinolin-3-yl)methyl)-3,4-dihydro-2H-pyrano[3,2-b]pyridin-4-amine]
55 nM	10.6 ×10⁻⁶ cm/s	31 nM	CN(C[C@H]1Cc2c(cccc2N2CC3COC2C3)CN1)[C@H]1CCCc2cccnc21 (stereo in doubt) [EMU-324, (S)—N—(((R)-5-((1S,4R)-2-oxa-6-azabicyclo[2.2.1]heptan-6-yl)-1,2,3,4-tetrahydroisoquinolin-3-yl)methyl)-N-methyl-5,6,7,8-tetrahydroquinolin-8-amine]
6.15 nM	–	4.4 nM	CN(C[C@H]1Cc2c(cccc2N2CCN3CCOC[C@H]3C2)CN1)[C@H]1CCCc2cccnc21 [EMU-343, (S)—N—(((R)-5-((R)-hexahydropyrazino[2,1-c][1,4]oxazin-8(1H)-yl)-1,2,3,4-tetrahydroisoquinolin-3-yl)methyl)-N-methyl-5,6,7,8-tetrahydroquinolin-8-amine]
